US20220323443A1, “COMBINATION THERAPY FOR CANCER TREATMENT” (TAKEDA PHARMACEUTICAL COMPANY LIMITED, priority 2019, published 2022)

What was measured:
A549 cancer cells = experiment: In vitro combination study with Compound 1, Cell Titer-Glo (ATP) cell viability, 72 h; type: cell-based; conditions: DNA damaging agent combined with Compound 1; 72 h;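 note: Ten-by-ten dose matrices of the two agents in duplicate, compounds added 16 h post-plating, activity relative to DMSO vehicle wells, call reflects synergy evaluation from luminescence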
COLO205 cancer cells = experiment: as above; type: cell-based, human; conditions: DNA damaging agent combined with Compound 1; 72 h
H460 cancer cells = experiment: as above; type: cell-based; conditions: DNA damaging agent combined with Compound 1; 72 h
Protocol: (§3) Each combination pair was evaluated in an individual 384-well plate which contained variable doses of both compounds as single agents, as well as two, ten-by-ten matrices (in duplicate) that contained mixtures of the two test compounds. In brief, compounds were added to the cell test plates 16 hours after cell plating and then assessed for viability 72 hours later. Continuous cultures of tumor cells were maintained under standard cell culturing conditions (i.e. in a humidified chamber set at 37° C., containing atmosphere 5% carbon dioxide). […] Seventy-two hours after compound addition, ATP levels were measured to assess cell viability. Plating densities were chosen to ensure optimal linear growth over the 72 hour period.
(§4) Compound dilution and compound delivery to the assay plates were done on HighRes Robotic System (HighRes Biosolutions, Woburn, Mass., USA) with Echo™ Liquid Handler (Labcyte, Sunnyvale, Calif., USA). […] Next, these were used for compound transfer into cell assay plates. All wells were back-filled to give a constant percentage of DMSO.
(§5) The final DMSO concentration was held constant in all wells across the plate and was maintained at less than 0.5%. […] Cells treated with vehicle (DMSO) in two rows, or single compound serial dilutions in one plate columns/row served as the untreated control and single compound controls, respectively.
(§6) Compound activity in A549, COLO205, H460, HCT116, SW48, SW620 cancer cell lines was assessed using Cell Titer-Glo® (Promega [Madison, Wis., USA]). After 72 hours incubation, the plates were treated as per package insert protocol for the Promega Luminescence ATP Detection Systems. Briefly, 25 μL of cell lysis/substrate solution (provided in kit form) was added to each well and the plate was incubated at room temperature for 10 minutes. Luminescence was measured using a PHERAstar multi-label counter (BMG Labtech [Ortenberg, Germany]) or LEADseeker (GE Healthcare Life Sciences [Piscataway, N.J., USA]).
(§7) Numerical luminescence values were analyzed to generate EC50 curves and evaluate synergy. Raw Data reader files were uploaded along with automation workfiles that defined the plate and well contents. Percent activities were calculated for each well versus plate controls.
(§8) Each plate representing a single drug combination was analyzed separately. First, the viability measurements were normalized by scaling the data so that the median of the negative controls was 0 and the median of the positive controls was 100.
(§9) For the combination analysis, a response surface model was used to describe the relationship between the normalized viability and the drug concentrations. The data were fit to the model by minimizing the residual sum of squares. Based on the fitted response surface, plots of constant viability, called isobolograms, were produced.
(§10) The Combination Index and Nonlinear Blending were used as measures of drug synergy. To calculate Combination Index the 50% isobologram (which is the dose contour that has 50% viability) was used. […] A standard procedure was created to produce a call in order to characterize the viability effects for each combination (synergy, additivity, subadditivity, or antagonism). If the Combination Index existed then these measures were used to make the call.

HCT116 cancer cells = experiment: as above; type: cell-based; conditions: DNA damaging agent combined with Compound 1; 72 h
Protocol: as §3, §4, §5, §6, §7, §8, §9, §10

SW620 cancer cells = experiment: as above; type: cell-based; conditions: DNA damaging agent combined with Compound 1; 72 h
CALU6 (Lung) = experiment: In vitro combination study for selected compounds, additional cell lines; type: cell-based; conditions: drug combined with Compound 1
Protocol: (§1) In vitro anti-proliferative effects of selected compounds were tested in additional cell lines, including ovarian cancer (SKOV3) and pancreatic cancer (MIA-PACA-2) cell lines.

H-1650 (Lung) = experiment: as above; type: cell-based; conditions: drug combined with Compound 1
Protocol: as §1

[1] = tested on: ovarian cancer (SKOV3) cell line; experiment: as above; type: cell-based; conditions: drug combined with Compound 1
Protocol: as §1

DU-145 (Prostate) = experiment: In vivo combination study, Cell Derived Xenograft; design: species or system mouse; conditions: DU-145 (165 mm^3); Compound 1 60 mg/kg once daily Day 1-21; drug 40 mg/kg intraperitoneally Days 1,4,8,11,15,18
Protocol: (§2) To investigate in vivo antitumor activity of Compound 1 in combination with other agents, tests using Cell Derived Xenograft (CDX), Patient Derived Xenograft (PDX) and Syngeneic mouse tumor isograft model were conducted. Cells or Patient Derived Tumors were inoculated by one method of the following two methods (Method A and B) as shown Table 7.
Method A; Cells were maintained in either immune deficient nude mice or immune competent mice by subcutaneous inoculation of tumor cells at various concentrations into respected mice. Method B: Patient Derived Tumor s were maintained in nude mice by subcutaneous inoculation of tumor pieces (approx. 2×2×2 mm) into nude mice. […]
Tumor size was measured by caliper and tumor volume was estimated using the equation V=(LW^2)/2, where L and W are tumor length and width, respectively and reported in cubic millimeters. […]
For synergy analyses, the observed differences in the log tumor values were used to calculate AUC values for each animal. […] The AUC for the control, or vehicle, group was calculated using the predicted values from the pairwise models described above. […]
where Ak and Bk are the k^th animal in the individual treatment groups and ABk is the k^th animal in combination treatment group. […] The standard error of the synergy score was calculated as the square root of the sum of squared standard errors across groups A, B, and AB. […]

Panc02 (Pancreatic) = experiment: In vivo combination study, syngeneic mouse tumor isograft model
Protocol: as §2
Method A; Cells were maintained in either immune deficient nude mice or immune competent mice by subcutaneous inoculation of tumor cells at various concentrations into respected mice. Method B: Patient Derived Tumor s were maintained in nude mice by subcutaneous inoculation of tumor pieces (approx. 2×2×2 mm) into nude mice. Mice with tumor size of approximately 50 mm^3 (e.g., 40-75 mm^3) for syngeneic mouse studies or 200 mm^3 (e.g., 110-270 mm^3) for xenograft studies were randomly assigned to dose groups on the day (Day 0) before start date of dosing.
Compound 1 (crystalline form I) was suspended in 0.5 w/v % methylcellulose and administered orally to mice. Antibodies which administered in the experiment were described in Table 8.
Tumor size was measured by caliper and tumor volume was estimated using the equation V=(LW^2)/2, where L and W are tumor length and width, respectively and reported in cubic millimeters.
These values were compared across treatment groups to assess whether the differences in the trends over time were statistically significant. To compare pairs of treatment groups, the following mixed-effects linear regression model was fit to the data using the maximum likelihood method:
For synergy analyses, the observed differences in the log tumor values were used to calculate AUC values for each animal. In instances when an animal in a treatment group was removed from the study, the last observed tumor value was carried forward through all subsequent time points. The AUC for the control, or vehicle, group was calculated using the predicted values from the pairwise models described above. We defined a measure of synergy as follows:
where Ak and Bk are the k^th animal in the individual treatment groups and ABk is the k^th animal in combination treatment group. AUCcd is the model-predicted AUC for the control group and was treated as a constant with no variability. The standard error of the synergy score was calculated as the square root of the sum of squared standard errors across groups A, B, and AB. The degrees of freedom were estimated using the Welch-Satterthwaite equation. A hypothesis test was performed to determine if the synergy score differed from 0. P values were calculated by dividing the synergy score by its standard error and tested against a t-distribution (two-tailed) with the above-calculated degrees of freedom.
The effect was classified into four different categories. It was considered synergistic if the synergy score was less than 0 and additive if the synergy score wasn't statistically different from 0. If the synergy score was greater than zero, but the mean AUC for the combination was lower than the lowest mean AUC among the two single agent treatments, then the combination was sub-additive. If the synergy score was greater than zero, and the mean AUC for the combination was greater than the mean AUC for at least one of the single agent treatments, then the combination was antagonistic.

[2] = tested on: PHTX-249Pa human primary pancreatic xenografts; experiment: In vivo combination study, Patient Derived Xenograft; design: species or system mouse
PHTXM-97Pa (Pancreatic) = experiment: as above; design: species or system mouse
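Throughout, for Call, anti-proliferative effect of combination with Compound 1, COLO205: Ten-by-ten dose matrices of both agents in duplicate plus single-agent dilutions, luminescent ATP read-out, percent activity per well relative to DMSO vehicle wells, synergy call from these matrices.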
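Throughout, for Call, anti-proliferative effect of combination with Compound 1, H460: Ten-by-ten dose matrices of both drugs alongside single-agent dilutions, luminescence read 72 hours after compound addition, percent activity per well versus vehicle (DMSO) plate controls.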
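Throughout, for Call, anti-proliferative effect of combination with Compound 1, HCT116: combination call from 10×10 dose matrices in duplicate, graded by synergy, with percent activity per well relative to DMSO vehicle controls on the same plate.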
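Throughout, for Call, anti-proliferative effect of combination with Compound 1, SW620: Ten-by-ten dose matrices of both drugs in 384-well plates, luminescent ATP read-out, synergy evaluated against single-agent and DMSO vehicle controls.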

## Nc1ccn([C@@H]2O[C@H](CO)[C@@H](O)C2(F)F)c(=O)n1 [Gemcitabine]
A549 cancer cells
  Call, anti-proliferative effect of combination with Compound 1, A549: Antagonism (>2)
COLO205 cancer cells
  Call, anti-proliferative effect of combination with Compound 1, COLO205: Additivity (0.7 to 1.3)
H460 cancer cells
  Call, anti-proliferative effect of combination with Compound 1, H460: Subadditivity (1.3 to 2)
HCT116 cancer cells
  Call, anti-proliferative effect of combination with Compound 1, HCT116: Additivity (0.7 to 1.3)
SW620 cancer cells
  Call, anti-proliferative effect of combination with Compound 1, SW620: Additivity (0.7 to 1.3)
CALU6 (Lung)
  In vitro combination effect with Compound 1, Lung CALU6: Additive
H-1650 (Lung)
  In vitro combination effect with Compound 1, Lung H-1650: Antagonism
[1]
  In vitro combination effect with Compound 1, Ovary SKOV3: Additive
DU-145 (Prostate)
  Result (combination with Compound 1, tumor growth): Additive
Panc02 (Pancreatic); Panc02 (75 mm^3), Compound 1 60 mg/kg orally QD day 0-20, drug 5 mg/kg intraperitoneally QD on Day 0,3,6,9,12
  Result (combination with Compound 1, tumor growth): Additive
Panc02 (Pancreatic); note to Table 9, by note order: Gemcitabine study in Panc02 (75 mm^3)
  CR per group: 0 CR in Gemcitabine group and 0 CR in Compound 1 group, and 0 CR in Compound 1/Gemcitabine combo group
[2]; PHTX-249Pa (165 mm^3), Compound 1 40 mg/kg once daily Day 1-21, drug 20 mg/kg intraperitoneally Days 1,4,8,11,15,18
  Result (combination with Compound 1, tumor growth): Additive
[2]; PHTX-249Pa (165 mm^3), Compound 1 40 mg/kg once daily Day 1-21, drug 40 mg/kg intraperitoneally Days 1,4,8,11,15,18
  Result (combination with Compound 1, tumor growth): subadditive
[2]; PHTX-249Pa (165 mm^3), Compound 1 60 mg/kg once daily Day 1-21, drug 20 mg/kg intraperitoneally Days 1,4,8,11,15,18
  Result (combination with Compound 1, tumor growth): Additive
[2]; PHTX-249Pa (165 mm^3), Compound 1 60 mg/kg once daily Day 1-21, drug 40 mg/kg intraperitoneally Days 1,4,8,11,15,18
  Result (combination with Compound 1, tumor growth): subadditive
[2]; PHTX-249Pa (180 mm^3) FIG. 6A, Compound 1 20 mg/kg once daily Day 1-21, drug 5 mg/kg intraperitoneally Days 1,4,8,11,15,18
  Result (combination with Compound 1, tumor growth): Synergistic
[2]; PHTX-249Pa (180 mm^3) FIG. 6A, Compound 1 20 mg/kg once daily Day 1-21, drug 20 mg/kg intraperitoneally Days 1,4,8,11,15,18
  Result (combination with Compound 1, tumor growth): Additive
[2]; PHTX-249Pa (180 mm^3) FIG. 6A, Compound 1 40 mg/kg once daily Day 1-21, drug 5 mg/kg intraperitoneally Days 1,4,8,11,15,18
  Result (combination with Compound 1, tumor growth): Additive
[2]; PHTX-249Pa (180 mm^3) FIG. 6A, Compound 1 40 mg/kg once daily Day 1-21, drug 20 mg/kg intraperitoneally Days 1,4,8,11,15,18
  Result (combination with Compound 1, tumor growth): subadditive
[2]; combined with Compound 1, PHTX-249 Pa human primary pancreatic xenografts, FIG. 6A
  antitumor activity: strong antitumor activity compared to either single treatment alone
PHTXM-97Pa (Pancreatic); PHTXM-97Pa (180 mm^3), Compound 1 20 mg/kg once daily Day 1-21, drug 5 mg/kg intraperitoneally Days 1,4,8,11,15,18
  Result (combination with Compound 1, tumor growth): subadditive
PHTXM-97Pa (Pancreatic); PHTXM-97Pa (180 mm^3), Compound 1 20 mg/kg once daily Day 1-21, drug 20 mg/kg intraperitoneally Days 1,4,8,11,15,18
  Result (combination with Compound 1, tumor growth): Additive
PHTXM-97Pa (Pancreatic); PHTXM-97Pa (180 mm^3), Compound 1 40 mg/kg once daily Day 1-21, drug 5 mg/kg intraperitoneally Days 1,4,8,11,15,18
  Result (combination with Compound 1, tumor growth): subadditive
PHTXM-97Pa (Pancreatic); PHTXM-97Pa (180 mm^3), Compound 1 40 mg/kg once daily Day 1-21, drug 20 mg/kg intraperitoneally Days 1,4,8,11,15,18
  Result (combination with Compound 1, tumor growth): subadditive
PHTXM-97Pa (Pancreatic); PHTXM-97Pa (210 mm^3), Compound 1 40 mg/kg once daily Day 1-21, drug 20 mg/kg intraperitoneally Days 1,4,8,11,15,18
  Result (combination with Compound 1, tumor growth): subadditive
PHTXM-97Pa (Pancreatic); PHTXM-97Pa (210 mm^3), Compound 1 40 mg/kg once daily Day 1-21, drug 40 mg/kg intraperitoneally Days 1,4,8,11,15,18
  Result (combination with Compound 1, tumor growth): subadditive
PHTXM-97Pa (Pancreatic); PHTXM-97Pa (210 mm^3), Compound 1 60 mg/kg once daily Day 1-21, drug 20 mg/kg intraperitoneally Days 1,4,8,11,15,18
  Result (combination with Compound 1, tumor growth): subadditive
PHTXM-97Pa (Pancreatic); PHTXM-97Pa (210 mm^3), Compound 1 60 mg/kg once daily Day 1-21, drug 40 mg/kg intraperitoneally Days 1,4,8,11,15,18
  Result (combination with Compound 1, tumor growth): subadditive
